Columns and labels:
AKT2 = molecular target: T1, AKT2 (Homo sapiens, UniProt P31751); assay: Live cell target engagement by NanoBRET competitive probe displacement, AKT2; type: binding; details: transfected HEK293 cells, 2 h at 37° C., read-out: AKT2 IC50: GeoMean IC50
T1 construct: expressed in transfected cells; host or cells: HEK293

[1] = test system: LAPC4 prostate cancer cells, which express the AKT1 E17K allele; assay: Antiproliferative effects in LAPC4 cells (CellTiter Glo, 72 h); type: cell-based; details: Homo sapiens, LAPC4, 72 h, read-out: LAPC4 proliferation IC50: GeoMean IC50
Summary of the method: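 IC50 values come from Hill-equation fitting of luminescence (cellular ATP) after 72 h compound exposure. Treated wells held 1,000 cells each, with compound delivered as DMSO dilutions. Culture medium was IMDM plus 12% FBS.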

AKT1 E17K = molecular target: T2, AKT1 E17K (Homo sapiens, UniProt P31749, E17K); assay: Live cell target engagement by NanoBRET competitive probe displacement, AKT1 E17K; type: binding; details: transfected HEK293 cells, 2 h at 37° C., read-out: AKT1 E17K IC50: GeoMean IC50
T2 construct: expressed in transfected cells; host or cells: HEK293

AKT1 WT = molecular target: T3, AKT1 WT (Homo sapiens, UniProt P31749); assay: Live cell target engagement by NanoBRET competitive probe displacement, AKT1 WT; type: binding; details: transfected HEK293 cells, 2 h at 37° C., read-out: AKT1 WT IC50: GeoMean IC50
T3 construct: expressed in transfected cells; host or cells: HEK293
T3 sequence (P31749 whole entry): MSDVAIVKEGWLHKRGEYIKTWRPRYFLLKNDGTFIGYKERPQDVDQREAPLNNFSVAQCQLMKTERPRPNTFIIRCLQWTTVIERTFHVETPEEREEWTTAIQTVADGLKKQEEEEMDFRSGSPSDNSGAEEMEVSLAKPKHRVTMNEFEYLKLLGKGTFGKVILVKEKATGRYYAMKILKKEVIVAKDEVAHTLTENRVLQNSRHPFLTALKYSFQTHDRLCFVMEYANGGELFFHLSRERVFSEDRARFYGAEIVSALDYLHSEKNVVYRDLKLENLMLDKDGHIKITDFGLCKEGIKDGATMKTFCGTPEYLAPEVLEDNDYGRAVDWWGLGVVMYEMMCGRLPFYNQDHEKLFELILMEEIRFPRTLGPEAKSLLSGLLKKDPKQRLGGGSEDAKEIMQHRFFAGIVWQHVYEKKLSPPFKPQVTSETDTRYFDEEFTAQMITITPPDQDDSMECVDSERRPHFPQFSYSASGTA

T1 sequence (P31751 whole entry): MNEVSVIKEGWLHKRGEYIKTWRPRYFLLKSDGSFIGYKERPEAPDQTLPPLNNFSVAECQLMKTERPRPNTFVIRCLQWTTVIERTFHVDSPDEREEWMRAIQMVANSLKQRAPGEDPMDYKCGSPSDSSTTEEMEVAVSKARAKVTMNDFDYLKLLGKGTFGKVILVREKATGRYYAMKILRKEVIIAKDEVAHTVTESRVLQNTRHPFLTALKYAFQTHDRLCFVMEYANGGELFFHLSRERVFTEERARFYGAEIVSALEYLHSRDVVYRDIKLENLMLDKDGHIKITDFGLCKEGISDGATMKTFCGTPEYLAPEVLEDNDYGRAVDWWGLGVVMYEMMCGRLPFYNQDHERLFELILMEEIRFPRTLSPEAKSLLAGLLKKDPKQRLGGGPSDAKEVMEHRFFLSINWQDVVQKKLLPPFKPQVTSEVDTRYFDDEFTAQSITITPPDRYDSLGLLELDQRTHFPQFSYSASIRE
T2 sequence (P31749 whole entry E17K): as the sequence (P31749 whole entry) above, with E17K counted along it

Row | Compound | IC50 (AKT2) | IC50 [1] | IC50 (AKT1 E17K) | IC50 (AKT1 WT)
1 | Nc1ncccc1-c1nc2ccc(-n3ccnn3)nc2n1-c1ccc2c(c1)CC[C@@H]2NC(=O)c1ccc(O)c(C=O)c1 [Example 92, N-[(1S)-5-[2-(2-aminopyridin-3-yl)-5-(1,2,3-triazol-1-yl)imidazo[4,5-b]pyridin-3-yl]-2,3-dihydro-1H-inden-1-yl]-3-formyl-4-hydroxybenzamide] | 100 to 2000 nM | 100 to 2000 nM | 10 to 100 nM | 10 to 100 nM
2 | Cn1c(=O)[nH]c2c(C=O)cc(C(=O)N[C@H]3CCc4cc(-n5c(-c6cccnc6N)nc6ccc(-n7cccn7)nc65)ccc43)cc21 [Example 170, (S)—N-(5-(2-(2-aminopyridin-3-yl)-5-(1H-pyrazol-1-yl)-3H-imidazo[4,5-b]pyridin-3-yl)-2,3-dihydro-1H-inden-1-yl)-7-formyl-3-methyl-2-oxo-2,3-dihydro-1H-benzo[d]imidazole-5-carboxamide] | 100 to 2000 nM | 10 to 100 nM | < 10 nM | < 10 nM
3 | Nc1ncccc1-c1nc2ccc(-c3nccs3)nc2n1-c1ccc2c(c1)CC[C@@H]2NC(=O)c1cc(F)c(O)c(C=O)c1 [Example 130, N-[(1S)-5-[2-(2-aminopyridin-3-yl)-5-(1,3-thiazol-2-yl)imidazo[4,5-b]pyridin-3-yl]-2,3-dihydro-1H-inden-1-yl]-3-fluoro-5-formyl-4-hydroxybenzamide] | 100 to 2000 nM | 10 to 100 nM | 10 to 100 nM | 10 to 100 nM
4 | Cc1cnc(-c2ccc3nc(-c4cccnc4N)n(-c4ccc5c(c4)CC[C@@H]5NC(=O)c4ccc(O)c(C=O)c4)c3n2)s1 [Example 132, (S)—N-(5-(2-(2-aminopyridin-3-yl)-5-(5-methylthiazol-2-yl)-3H-imidazo[4,5-b]pyridin-3-yl)-2,3-dihydro-1H-inden-1-yl)-3-formyl-4-hydroxybenzamide] | 100 to 2000 nM | 10 to 100 nM | < 10 nM | 10 to 100 nM
5 | Nc1ncccc1-c1nc2c(Cl)cc(-n3cccn3)nc2n1-c1ccc2c(c1)CC[C@@H]2NC(=O)c1ccc(O)c(C=O)c1 [Example 196, (S)—N-(5-(2-(2-aminopyridin-3-yl)-7-chloro-5-(1H-pyrazol-1-yl)-3H-imidazo[4,5-b]pyridin-3-yl)-2,3-dihydro-1H-inden-1-yl)-3-formyl-4-hydroxybenzamide] | 100 to 2000 nM | 100 to 2000 nM | 10 to 100 nM | 10 to 100 nM
6 | Nc1ncccc1-c1nc2ccc(-c3ccccc3)nc2n1-c1ccc2c(c1)CC[C@@H]2NC(=O)c1cc(C=O)c2[nH]nnc2c1 [Example 137, N-[(1S)-5-[2-(2-aminopyridin-3-yl)-5-phenylimidazo[4,5-b]pyridin-3-yl]-2,3-dihydro-1H-inden-1-yl]-7-formyl-1H-1,2,3-benzotriazole-5-carboxamide] | < 10 nM | 10 to 100 nM | < 10 nM | < 10 nM
7 | Nc1ncccc1-c1nc2ccc(C(F)(F)F)nc2n1-c1ccc2c(c1)CC[C@@H]2NC(=O)c1ccc(O)c(C=O)c1 [Example 55, (S)—N-(5-(2-(2-aminopyridin-3-yl)-5-(trifluoromethyl)-3H-imidazo[4,5-b]pyridin-3-yl)-2,3-dihydro-1H-inden-1-yl)-3-formyl-4-hydroxybenzamide] | ≥ 2000 nM | ≥ 2000 nM | 100 to 2000 nM | 100 to 2000 nM
8 | Cn1ccc(-c2ccc3nc(-c4cccnc4N)n(-c4ccc5c(c4)CC[C@@H]5NC(=O)c4ccc(O)c(C=O)c4)c3n2)n1 [Example 59, (S)—N-(5-(2-(2-aminopyridin-3-yl)-5-(1-methyl-1H-pyrazol-3-yl)-3Himidazo[4,5-b]pyridin-3-yl)-2,3-dihydro-1H-inden-1-yl)-3-formyl-4-hydroxybenzamide] | 100 to 2000 nM | 10 to 100 nM | 10 to 100 nM | 10 to 100 nM
9 | Nc1ncccc1-c1nc2ccc(-c3ccncc3)nc2n1-c1ccc2c(c1)CC[C@@H]2NC(=O)c1ccc(O)c(C=O)c1 [Example 24, N-[(1S)-5-[2-(2-aminopyridin-3-yl)-5-(pyridin-4-yl)imidazo[4,5-b]pyridin-3-yl]-2,3-dihydro-1H-inden-1-yl]-3-formyl-4-hydroxybenzamide] | 100 to 2000 nM | 10 to 100 nM | 10 to 100 nM | 10 to 100 nM
10 | Nc1ncccc1-c1nc2ccc(-c3ccccc3)nc2n1-c1ccc2c(c1)CC[C@@H]2NC(=O)c1ccc(NC(=O)N2CCOCC2)c(C=O)c1 [Example 68, N-(4-{[(1S)-5-[2-(2-aminopyridin-3-yl)-5-phenylimidazo[4,5-b]pyridin-3-yl]-2,3-dihydro-1H-inden-1-yl]carbamoyl}-2-formylphenyl)morpholine-4-carboxamide] | 100 to 2000 nM | 100 to 2000 nM | 10 to 100 nM | 10 to 100 nM
11 | Nc1ncccc1-c1nc2ccc(-c3ccccc3)nc2n1-c1ccc2c(c1)CC[C@@H]2NC(=O)c1ccc(NC(=O)C2CC2)c(C=O)c1 [Example 47, N-[(1S)-5-[2-(2-aminopyridin-3-yl)-5-phenylimidazo[4,5-b]pyridin-3-yl]-2,3-dihydro-1H-inden-1-yl]-4-cyclopropaneamido-3-formylbenzamide] | 10 to 100 nM | 10 to 100 nM | 10 to 100 nM | 10 to 100 nM
12 | Nc1ncccc1-c1nc2ccc(-c3nccnc3F)nc2n1-c1ccc2c(c1)CC[C@@H]2NC(=O)c1ccc(O)c(C=O)c1 [Example 109, N-[(1S)-5-[2-(2-aminopyridin-3-yl)-5-(3-fluoropyrazin-2-yl)imidazo[4,5-b]pyridin-3-yl]-2,3-dihydro-1H-inden-1-yl]-3-formyl-4-hydroxybenzamide] | 100 to 2000 nM | 100 to 2000 nM | 10 to 100 nM | 100 to 2000 nM
13 | Nc1ncccc1-c1nc2ccc(NC3CC3)nc2n1-c1ccc2c(c1)CC[C@@H]2NC(=O)c1ccc(O)c(C=O)c1 [Example 87, (S)—N-(5-(2-(2-aminopyridin-3-yl)-5-(cyclopropylamino)-3H-imidazo[4,5-b]pyridin-3-yl)-2,3-dihydro-1H-inden-1-yl)-3-formyl-4-hydroxybenzamide] | ≥ 2000 nM | 100 to 2000 nM | 10 to 100 nM | 100 to 2000 nM
14 | Nc1ncccc1-c1nc2ccc(-c3ccccc3)nc2n1-c1ccc2c(c1)C(=O)C[C@@H]2NC(=O)c1ccc(O)c(C=O)c1 [Example 74, N-[(1S)-5-[2-(2-aminopyridin-3-yl)-5-phenylimidazo[4,5-b]pyridin-3-yl]-3-oxo-1,2-dihydroinden-1-yl]-3-formyl-4-hydroxybenzamide] | 100 to 2000 nM | 100 to 2000 nM | 10 to 100 nM | 100 to 2000 nM
15 | Nc1ncccc1-c1nc2ccc(-c3ccccc3)nc2n1-c1ccc2c(c1)CC[C@@H]2NC(=O)c1cnn2ccc(O)c(C=O)c12 [Example 54, N-[(1S)-5-[2-(2-aminopyridin-3-yl)-5-phenylimidazo[4,5-b]pyridin-3-yl]-2,3-dihydro-1H-inden-1-yl]-4-formyl-5-hydroxypyrazolo[1,5-a]pyridine-3-carboxamide] | 100 to 2000 nM | ≥ 2000 nM | 100 to 2000 nM | 10 to 100 nM
16 | Nc1ncccc1-c1nc2ccc(-n3cccn3)nc2n1-c1ccc2c(c1)CC[C@@H]2NC(=O)c1cc(C=O)c(O)c(Cl)c1F [Example 123, (S)—N-(5-(2-(2-aminopyridin-3-yl)-5-(1H-pyrazol-1-yl)-3H-imidazo[4,5-b]pyridin-3-yl)-2,3-dihydro-1H-inden-1-yl)-3-chloro-2-fluoro-5-formyl-4-hydroxybenzamide] | 10 to 100 nM | 10 to 100 nM | < 10 nM | 10 to 100 nM

Source: patent publication US20260053834A1, “COVALENT MODIFIERS OF AKT1 AND USES THEREOF” (Terremoto Biosciences, Inc., priority 2023, published 2026)
